Patent US8329746B2, “Method for treating osteoarthritis” (CaloSyn Pharma, Inc., priority 2005, dated 2012)

Test system: synovial lining cells
Conditions: human

SMILES | concentration that must not be exceeded in compositions (harmful effects on synovial cells) [µg/mL]
CCN(CC)CCNC(=O)c1ccc(N)cc1 [procainamide] | ≤ 2000
COc1ccc(CCN(C)CCCC(C#N)(c2ccc(OC)c(OC)c2)C(C)C)cc1OC (centres unmarked) [verapamil] | ≤ 2000
